Test results as given in paper PMC9704104, “Towards safer anti-inflammatory therapy: synthesis of new thymol–pyrazole hybrids as dual COX-2/5-LOX inhibitors” (Journal of Enzyme Inhibition and Medicinal Chemistry, 2022).
Where “and” joins values, the source holds several entries; their conditions need not be identical. Identical values can stand only once. Like-named read-outs stand apart in the source and are kept apart here. Marks after values point to notes of the source that are not given here. Blank lines part the entries; values can stand above or below the compound they belong to.

Tests used:
[1] = tested on: formalin-induced rat paw oedema; assay: Formalin-induced paw oedema test (acute inflammation model); format: in vivo; conditions: for % Inhibition of oedema volume, Mean ± SD / inhibition in vivo at 5 mg/kg / Volume of oedema (ml) 4h, Mean ± SD / % inhibition of paw oedema compared with reference drugs (in words): 4 h; for inhibition in vivo at 5 mg/kg: Rattus norvegicus; for inhibition in vivo at 5 mg/kg / Volume of oedema (ml) 4h, Mean ± SD: po; for % inhibition of paw oedema compared with reference drugs (in words): comparison with celecoxib or diclofenac sodium; for % Relative potency (4h) celecoxib / % Relative potency (4h) celecoxib, Mean ± SD: relative to % inhibition of celecoxib at 4 h; for % Relative potency (4h) diclofenac, Mean ± SD / % Relative potency (4h) diclofenac: relative to % inhibition of diclofenac at 4 h
Method: Animals Adult female albino rats weighing 150-250 g were used (Experimental Animal Centre in Alexandria University). All animals accessed to food and water ad libitum and were housed in 12 h dark/light cycle in a controlled condition at 23-250C. They were allowed to acclimatize for 1 week prior to experimentation. Procedures involving animals and their care were conducted in conformity with the Guide for the Care and Use of Laboratory Animals published by US National Institute of Health4 (NIH publication No. 83-23, revised) and following the ethical guidelines of Alexandria University on laboratory animals. In all tests, adequate considerations were adopted to reduce pain or discomfort of animals (Approved by AlexU-IACUC) 3. […]
Formalin-induced paw edema test (acute inflammation model):
A solution of freshly prepared formalin 5% was used as a phlogistic agent. A mark was made on the lateral malleolus of the rats’ paws delineating the injection sites. The initial volume of paw was measured by means of digital calibrated Vernier caliper .
After 45 minutes, 40 μl formalin were injected subcutaneously into the sub plantar tissue of the right hind paw of all groups under light ether anesthesia . An equal volume of saline was injected into the left hind paw and served as internal control for the degree of inflammation in the right hind paw. 5, 6 The volume of paw was measured in different treatment groups, 4 h following the formalin injection and the amount of increase in paw volume (edema volume) was calculated by subtracting the volumes before and 4 h after the injection of formalin. Edema was expressed as an increase in the volume of paw, and the percentage of edema inhibition (or percent protection against inflammation) for each rat and each group was calculated according to the following equation: […]
Where Vt is the mean volume of edema at specific time interval (4 h) and Vo is the mean volume of edema […]
Relative potency of the tested compounds was expressed as % inhibition of edema for the tested compounds

gastric mucosa = assay: In vivo gastric ulcerogenic activity (gross examination of gastric mucosa); conditions: fasted rats, 60 mg/kg orally, six hours after treatment
COX-1 = target: T1, COX-1 (Ovis aries, UniProt P05979); assay: In vitro COX-1 inhibitory assay (Cayman colorimetric COX (ovine) inhibitor screening assay kit); format: biochemical; conditions: mean of three replicates ± SD
T1 construct: purchased Cayman chemicals 560131
T1 sequence (P05979 25-600): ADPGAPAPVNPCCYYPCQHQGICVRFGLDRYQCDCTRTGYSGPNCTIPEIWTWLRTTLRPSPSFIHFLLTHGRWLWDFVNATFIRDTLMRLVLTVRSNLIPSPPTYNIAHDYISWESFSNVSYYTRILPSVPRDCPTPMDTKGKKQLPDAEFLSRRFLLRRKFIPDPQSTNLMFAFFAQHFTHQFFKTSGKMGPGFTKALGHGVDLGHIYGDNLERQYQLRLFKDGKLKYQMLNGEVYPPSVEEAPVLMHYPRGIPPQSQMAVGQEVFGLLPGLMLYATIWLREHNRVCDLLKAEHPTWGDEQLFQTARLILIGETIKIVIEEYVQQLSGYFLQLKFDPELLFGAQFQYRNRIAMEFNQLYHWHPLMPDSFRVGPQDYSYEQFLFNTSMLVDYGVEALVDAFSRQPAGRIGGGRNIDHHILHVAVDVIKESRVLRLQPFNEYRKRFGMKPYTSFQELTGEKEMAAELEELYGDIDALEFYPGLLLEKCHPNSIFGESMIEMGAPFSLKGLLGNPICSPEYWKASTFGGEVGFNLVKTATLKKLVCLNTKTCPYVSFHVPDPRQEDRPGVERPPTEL
Method: (Page: S20, Supplementary file).
Anti-inflammatory activity
In vitro COX-1 and COX-2 inhibitory assay […]
supplied by Cayman chemicals, Ann Arbor, MI, USA according to reported method 1. The colorimetric COX inhibitor screening assay utilizes the peroxidase component of cyclooxygenase. The peroxidase activity was assayed calorimetrically by monitoring the appearance of oxidized N,N,N',N'-tetramethyl-1,4-phenylenediamine (TMPD) at 590nm. The appearance of reagent was carried out following the instructions […]
The half- maximal inhibitor concentrations (IC50µM) were determined and the selectivity index (SI) values were calculated as IC50 (COX-1)/IC50 (COX-2).
1) Background wells- 160 µL of assay buffer and 10 µL of heme were added to background wells.
2) The 100% Initial activity wells- 150 µL of assay buffer, 10 µL of heme and 10 µL of enzyme (COX-1 or COX-2) were added.
3) Inhibitor well- 150 µL of assay buffer, 10 µL of heme and 10 µL of enzyme were added.
4) 10 µL of inhibitor (3 concentrations) in DMSO was added to the inhibitor wells to yield a final […]
5) 10 µL of solvent (DMSO) was added to the 100% Initial activity wells and background wells.
7) 20 µL of colorimetric substrate solution (TMPD) was added to all wells.
8) 20 µL of arachidonic acid was added to all wells to yield a final concentration of 100 µM.
10) The absorbance was measured at 590 nm using a plate reader.
The calculations were carried out in the following manner:
1) The average absorbance of all samples was determined.
2) The absorbance of background wells was subtracted from absorbance of the 100% Initial activity […]
3) Percent inhibition = (100% Initial activity – Inhibitor wells/ 100% Initial activity)∗ 100 […]
Place the 96-well plate on a shaker for at least five minutes. […]

5-LOX = assay: In vitro 5-LOX inhibitory assay (Abnova 5-LOX inhibitor screening assay kit); format: biochemical
Excerpt: The newly synthesised compounds were screened for their ability to inhibit 5-LOX enzymes. […] (Page: S21, Supplementary file). […]
In vitro LOX inhibitory assay
Inhibitor Screening Assay Kit detects and measures the hydroperoxides produced in the lipoxygenation reaction using a purified LOX. The detection reaction is equally sensitive to hydroperoxides at various positions within the fatty acid and will work with fatty acids of any carbon length. It is thus a general detection method for 5-LOX and can be used to screen libraries of compounds for those which inhibit 5 -LOX enzymes.
1) Blank Wells- add 100 µL of assay buffer to at least two wells.
2) Positive Control Wells- Lipoxygenase (15-LO standard) add 90 µL 15-LO and 10 µL of assay buffer […]
3) 100% Initial Activity Wells- add 90 µL 15-LO and 10 µL of solvent (DMSO) (the same solvent to dissolve the inhibitor) to two wells. The 100% initial activity wells should result in approximately 10 […]
4) Inhibitor Wells- add 90 µL of sample and I10 µL of inhibitor to two wells.
5) Initiate the reaction by adding 10 µL of substrate (either arachidonic acid or linoleic acid) to all the wells. Place the 96-well plate on a shaker for at least five minutes.
6) Add 100 µL of chromogen to each well to stop enzyme catalysis and develop the reaction. Cover with a plate cover and place the 96-well plate on a shaker for at least five minutes.
7) Remove the cover and read the absorbance at 490-500 nm using a plate reader.
Inhibitors were dissolved in DMSO. The inhibitors were added to the assay in a final volume of 10 µL before initiating with substrate. Three concentrations were prepared (25, 50 and 100 µM) to determine the concentration produced 50% enzyme inhibition.
2) The absorbance of blank wells was subtracted from absorbance of the 100% Initial activity and the […]

[2] = group mean ± SD, 5 mg/kg orally
[3] = 4 h minus 0, group mean ± SD, 5 mg/kg orally
[4] = read-out: % Inhibition of oedema volume, 4 h, individual rats 1-3, 5 mg/kg orally
[5] = read-out: % Inhibition of oedema volume, Mean ± SD, 4 h, group mean ± SD, 5 mg/kg orally
[6] = group mean ± SD, 5 mg/kg orally, read-out: % Inhibition of oedema volume, Mean ± SD
[7] = individual rats 1-3, 5 mg/kg orally, read-out: % Inhibition of oedema volume
[8] = individual rats 1-3, 5 mg/kg orally, 5 mg/kg

SMILES: Cc1ccc(-c2cc(C(F)(F)F)nn2-c2ccc(S(N)(=O)=O)cc2)cc1 [Celecoxib, reference compound]
- % Inhibition of oedema volume, Mean ± SD [1, 2]: 36.33 ± 2.05%
- Abs diff., Mean ± SD [1, 3]: 1.38^a ± 0.06
- inhibition in vivo at 5 mg/kg [1, 4]: 35.2%
- inhibition in vivo at 5 mg/kg [1, 5]: 36.4%
- Volume of oedema (ml) 4h, Mean ± SD ([1]; 5 mg/kg): 5.69^a ± 0.02 ml
- Gross appearance of gastric mucosa (ulcerogenic potential) (gastric mucosa): no ulceration

SMILES: Cc1ccc(C(C)C)c(O)c1C=NNC(=O)c1cc(-c2ccccc2)n[nH]1 [Compound 4a, N'-(2-Hydroxy-3-isopropyl-6-methylbenzylidene)-3-phenyl-1H-pyrazole-5-carbohydrazide]
- IC50 (COX-1): 10.3 ± 0.1 µM
- IC50 (5-LOX): 3.05 ± 0.067 µM
- % inhibition of paw oedema compared with reference drugs (in words) ([1]; 5 mg/kg orally): double % inhibition exhibited by Celecoxib
- inhibition in vivo at 5 mg/kg [1, 6]: 81.9%
- inhibition in vivo at 5 mg/kg [1, 7]: 84.2%
- % Relative potency (4h) celecoxib ([1]; individual rats 1-3): 239.70% and 192.90% and 244.0%
- % Relative potency (4h) diclofenac, Mean ± SD ([1]; group mean ± SD): 156.4 ± 20.52%
- % Relative potency (4h) diclofenac ([1]; individual rats 1-3): 178.10% and 137.30% and 153.80%
- Gross appearance of gastric mucosa (ulcerogenic potential) (gastric mucosa; 60 mg/kg): No gross ulceration

SMILES: Cc1ccc(C(C)C)c(O)c1C=NNC(=O)c1cc(-c2ccc(Br)cc2)n[nH]1 [Compound 4b, 3-(4-Bromophenyl)-N'-(2-hydroxy-3-isopropyl-6-methylbenzylidene)-1H-pyrazole-5-carbohydrazide]
- IC50 (COX-1): 11.8 ± 0.15 µM
- IC50 (5-LOX): 1.84 ± 0.06 µM
- inhibition in vivo at 5 mg/kg [1, 7]: 55.9%
- % Relative potency (4h) celecoxib, Mean ± SD ([1]; group mean ± SD): 148.9 ± 11.16%
- % Relative potency (4h) celecoxib ([1]; individual rats 1-3): 159.0% and 136.90% and 150.70%
- % Relative potency (4h) diclofenac, Mean ± SD ([1]; group mean ± SD): 103.5 ± 12.68%
- % Relative potency (4h) diclofenac ([1]; individual rats 1-3): 118.10% and 97.50% and 95.0%
- Volume of oedema (ml) 0 [1, 8]: 5.15 mL
- Gross appearance of gastric mucosa (ulcerogenic potential) (gastric mucosa; 60 mg/kg): No gross ulceration

SMILES: O=C(O)Cc1ccccc1Nc1c(Cl)cccc1Cl [Diclofenac sodium, reference compound]
- % Inhibition of oedema volume, Mean ± SD [1, 2]: 52.53^b ± 4.59%
- Abs diff., Mean ± SD [1, 3]: 1.03^ab ± 0.12
- inhibition in vivo at 5 mg/kg [1, 4]: 47.3%
- inhibition in vivo at 5 mg/kg [1, 5]: 52.4%
- Volume of oedema (ml) 4h, Mean ± SD ([1]; 5 mg/kg): 5.30^ab ± 0.09 ml
- Gross appearance of gastric mucosa (ulcerogenic potential) (gastric mucosa): no ulceration

More lines, main results first:

- IC50 (COX-1): 11.24 ± 0.075 µM
- IC50 (5-LOX): 2.56 ± 0.025 µM
SMILES: Cc1ccc(C(C)C)c(O)c1C=NNC(=O)c1cc(-c2ccc(Br)cc2)n(-c2ccccc2)n1 [Compound 8e, 5-(4-Bromophenyl)-N'-(2-hydroxy-3-isopropyl-6-methylbenzylidene)-1-phenyl-1H-pyrazole-3-carbohydrazide]
- inhibition in vivo at 5 mg/kg [1, 7]: 59.5%
- % Relative potency (4h) celecoxib, Mean ± SD ([1]; group mean ± SD): 149.1 ± 20.95%
- % Relative potency (4h) celecoxib ([1]; individual rats 1-3): 169.20% and 127.40% and 150.70%
- % Relative potency (4h) diclofenac, Mean ± SD ([1]; group mean ± SD): 103.8 ± 19.09%
- % Relative potency (4h) diclofenac ([1]; individual rats 1-3): 125.70% and 90.70% and 95.0%

- IC50 (COX-1): 11.2 ± 0.57 µM
- IC50 (5-LOX): 2.91 ± 0.064 µM
SMILES: COc1ccc(-c2cc(C(=O)NN=Cc3c(C)ccc(C(C)C)c3O)nn2-c2ccccc2)cc1 [Compound 8f, 5-(4-Methoxyphenyl)-N'-(2-hydroxy-3-isopropyl-6-methylbenzylidene)-1-phenyl-1H-pyrazole-3-carbohydrazide]
- % inhibition of paw oedema compared with reference drugs (in words) ([1]; 5 mg/kg orally): slightly less % inhibition than that of Diclofenac sodium
- Abs diff. ([1]; 4 h minus 0, individual rats 1-3, 5 mg/kg orally, 5 mg/kg): 1.20
- inhibition in vivo at 5 mg/kg [1, 6]: 46.3 ± 3.67%
- inhibition in vivo at 5 mg/kg [1, 7]: 50.5%
- % Relative potency (4h) celecoxib, Mean ± SD ([1]; group mean ± SD): 127.7 ± 14.41%
- % Relative potency (4h) celecoxib ([1]; individual rats 1-3): 143.60% and 115.50% and 124.0%
- % Relative potency (4h) diclofenac, Mean ± SD ([1]; group mean ± SD): 89.03 ± 15.43%
- % Relative potency (4h) diclofenac ([1]; individual rats 1-3): 106.70% and 82.20% and 78.20%
- Volume of oedema (ml) 0 [1, 8]: 5.15 mL
